Source: patent US8785614B2, “Aberrantly methylated genes in pancreatic cancer” (The Johns Hopkins University, priority 2003, dated 2014)
Like-named read-outs stand apart in the source and are kept apart here.

Test system: MiaPaCa2 pancreatic cancer cell line
Experimental: Mock-treated cells were cultured with the equivalent volume of PBS alone.
Total RNA was isolated from cultured cells using TRIZOL reagent (invitrogen, Carlsbad, Calif.) and purified using RNeasy Mini Kit (Qiagen, Valencia, Calif.). First- and second-stranded cDNA was synthesized from 10 μg of total RNA using 17-dT) primer (Genset Corp., La Jolla, Calif.) and Superscript Choice system (Invitrogen). Labeled cRNA was synthesized from the purified cDNA by in vitro transcription reaction using the BioArray High Yield RNA Transcript Labeling Kit (Enzo Diagnostics, Inc., Farmingdale, N.Y.) at 37° C. for 6 h. The cRNA was fragmented at 94° C. for 35 min. in a fragmentation buffer [40 mM Tris-acetate @ pH 8.1, 100 mM potassium acestate, and 30 mM magnesium acetate]. The fragmented cRNA was then hybridized to the Human Genome U133A chips (Affymetrix, Santa Clara, Calif.) with 18462 unique gene/EST transcripts at 45° C. for 16 h. The washing and staining procedure was performed in the Affymetrix Fluidics Station according to the manufacturer's instructions. The probes were then scanned using a laser scanner, and signal intensity for each transcript (background-subtracted and adjusted for noise) was calculated using Microarray Suite Software 5.0 (Affymetrix).
Fold change analysis of signal intensities obtained from oligonucleotide microarrays between the two treatment groups was performed using Data Mining software (Afrymetrix).
The global changes in gene expression proxies induced by 5Aza-dC in four pancreatic cancer cell lines (AsPCl, Hs766T, MiaPaCa2, and Panel) were determined using the Afrymetrix U133 oligonucleotide microarrays with 18462 probes sets (transcripts) covering over 13000 full-length sequences of known genes.

Nc1ncn([C@H]2C[C@H](O)[C@@H](CO)O2)c(=O)n1 [5Aza-dC, 5 aza 2′ deoxycytidine]
Fold-change after 5Aza-dC treatment (ANGPT2, MiaPaCa2): 2.27 fold
Fold-change after 5Aza-dC treatment (BARD1, MiaPaCa2): −1.3 fold
Fold-change after 5Aza-dC treatment (BNIP3, MiaPaCa2): 21.32 fold
Fold-change after 5Aza-dC treatment (BST2, MiaPaCa2): 8.59 fold
Fold-change after 5Aza-dC treatment (CACNA1G, MiaPaCa2): 1.61 fold
Fold-change after 5Aza-dC treatment (CCNE2, MiaPaCa2): 1.09 fold
Fold-change after 5Aza-dC treatment (CDH3, MiaPaCa2): 5.79 fold
Fold-change after 5Aza-dC treatment (CDKN1A (p21), MiaPaCa2): 7.04 fold
Fold-change after 5Aza-dC treatment (CDKN1C, MiaPaCa2): 2.28 fold
Fold-change after 5Aza-dC treatment (CLDN5, MiaPaCa2): 1.67 fold
Fold-change after 5Aza-dC treatment (CSF1, MiaPaCa2): 4.23 fold
Fold-change after 5Aza-dC treatment (DR3, MiaPaCa2): 2.12 fold
Fold-change after 5Aza-dC treatment (FOXE1, MiaPaCa2): 3.8 fold
Fold-change after 5Aza-dC treatment (GAGE1, MiaPaCa2): 6.7 fold
Fold-change after 5Aza-dC treatment (GAGE3, MiaPaCa2): 15.22 fold
Fold-change after 5Aza-dC treatment (GAGE4, MiaPaCa2): 47.6 fold
Fold-change after 5Aza-dC treatment (GAGE6, MiaPaCa2): 24.03 fold
Fold-change after 5Aza-dC treatment (GAGE7, MiaPaCa2): 54.35 fold
Fold-change after 5Aza-dC treatment (HOXA1, MiaPaCa2): 2.56 fold
Fold-change after 5Aza-dC treatment (IGF2, MiaPaCa2): 0.81 fold
Fold-change after 5Aza-dC treatment (IL1R1, MiaPaCa2): −1.77 fold
Fold-change after 5Aza-dC treatment (ISG20, MiaPaCa2): 21.28 fold
Fold-change after 5Aza-dC treatment (JPH3, MiaPaCa2): 1.4 fold
Fold-change after 5Aza-dC treatment (KLK10, MiaPaCa2): 136.95 fold
Fold-change after 5Aza-dC treatment (LDOC1, MiaPaCa2): −1.01 fold
Fold-change after 5Aza-dC treatment (LHX1, MiaPaCa2): 1.89 fold
Fold-change after 5Aza-dC treatment (MAGE1, MiaPaCa2): 2.27 fold
Fold-change after 5Aza-dC treatment (MATN1, MiaPaCa2): −1.01 fold
transcripts with >5-fold increase, share of the 18462 transcripts analyzed (MiaPaCa2): 1.4%
transcripts with substantial increase (>5-fold) in signal intensities (MiaPaCa2, vs mock-treated): 251 transcripts
Fold-change after 5Aza-dC treatment (NEFH, MiaPaCa2): 6.73 fold
Fold-change after 5Aza-dC treatment (NPTX2, MiaPaCa2): 6.4 fold
Fold-change after 5Aza-dC treatment (PAX6, MiaPaCa2): −1.12 fold
Fold-change after 5Aza-dC treatment (PDYN, MiaPaCa2): 3.48 fold
Fold-change after 5Aza-dC treatment (PLAT, MiaPaCa2): 6.4 fold
Fold-change after 5Aza-dC treatment (PLEK2, MiaPaCa2): 7.5 fold
Fold-change after 5Aza-dC treatment (SARP2, MiaPaCa2): 38.33 fold
Fold-change after 5Aza-dC treatment (SMARCA1, MiaPaCa2): −1.07 fold
Fold-change after 5Aza-dC treatment (ST14, MiaPaCa2): 1.48 fold
Fold-change after 5Aza-dC treatment (TIMP3, MiaPaCa2): 1 fold
Fold-change after 5Aza-dC treatment (TJP2, MiaPaCa2): 8.61 fold
Fold-change after 5Aza-dC treatment (TNF, MiaPaCa2): 31.63 fold
Fold-change after 5Aza-dC treatment (UCHL1, MiaPaCa2): 5.27 fold
Fold-change after 5Aza-dC treatment (WNT7A, MiaPaCa2): 6.24 fold
Fold-change after 5Aza-dC treatment (XAGE-1, MiaPaCa2): 12.99 fold
Fold-change after 5Aza-dC treatment (granulocytemacrophage colony-stimulating factor (M11734), MiaPaCa2): 3.97 fold
Fold-change after 5Aza-dC treatment (interferon, alpha-inducible protein (NM_022873), MiaPaCa2): 11.03 fold
Fold-change after 5Aza-dC treatment (p53-induced protein (PIGII), MiaPaCa2): 5.45 fold
Fold-change after 5Aza-dC treatment (reprimo, MiaPaCa2): −1.09 fold
Fold-change after 5Aza-dC treatment (stratifin (14-3-3 sigma), MiaPaCa2): 34.77 fold
Fold-change after 5Aza-dC treatment (stromal antigen 3 (STAG5), MiaPaCa2): 4.96 fold
Fold-change after 5Aza-dC treatment (testin, MiaPaCa2): 9.61 fold
